The values below come from ChEMBL document CHEMBL1154363, “Heterocyclic 1,7-disubstituted indole sulfonamides are potent and selective human EP3 receptor antagonists” (Bioorg Med Chem Lett, 2009).

For series [1], the target named is T1, Prostaglandin E2 receptor EP4 subtype (Homo sapiens, UniProt P35408). Kind of series: Activity at EP4 receptor at 1 uM by FLIPR assay.
For series [2], the target named is T2, Thromboxane A2 receptor (Homo sapiens) (UniProt P21731).
T2 sequence (whole entry): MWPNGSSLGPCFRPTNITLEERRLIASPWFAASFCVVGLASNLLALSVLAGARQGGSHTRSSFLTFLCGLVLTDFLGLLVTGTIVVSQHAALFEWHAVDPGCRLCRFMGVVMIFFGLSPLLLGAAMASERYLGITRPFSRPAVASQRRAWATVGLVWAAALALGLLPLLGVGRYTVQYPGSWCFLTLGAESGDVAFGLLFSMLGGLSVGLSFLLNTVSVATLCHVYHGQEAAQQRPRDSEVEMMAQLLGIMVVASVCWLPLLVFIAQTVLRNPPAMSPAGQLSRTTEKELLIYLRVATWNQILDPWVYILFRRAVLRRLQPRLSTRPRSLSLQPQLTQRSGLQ
As to the kind of experiment: Activity at TP receptor at 1 uM by FLIPR assay.

Series [3] deals with T1, Prostaglandin E2 receptor EP4 subtype. As to the kind of experiment: Activity at EP4 receptor at 10 uM by FLIPR assay.
For series [4], the target named is T3, Prostaglandin E2 receptor EP3 subtype (Homo sapiens) (UniProt P43115).
T3 sequence (whole entry): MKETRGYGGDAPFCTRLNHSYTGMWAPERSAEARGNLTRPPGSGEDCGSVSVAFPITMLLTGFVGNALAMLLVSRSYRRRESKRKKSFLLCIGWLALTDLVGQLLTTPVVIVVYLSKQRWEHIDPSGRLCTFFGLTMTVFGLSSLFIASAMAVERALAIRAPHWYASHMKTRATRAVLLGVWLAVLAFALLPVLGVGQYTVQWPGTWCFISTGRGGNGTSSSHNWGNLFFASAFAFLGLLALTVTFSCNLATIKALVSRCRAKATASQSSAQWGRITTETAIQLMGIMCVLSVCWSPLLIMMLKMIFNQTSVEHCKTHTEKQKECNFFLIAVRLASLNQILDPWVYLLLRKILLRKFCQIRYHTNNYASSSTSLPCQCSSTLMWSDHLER
As to the kind of experiment: Displacement of [3H]PGE2 from human EP3 receptor in presence of 10% human serum. Background: Loss of bound radioactivity is the signal in a displacement assay; it reports binding, not function.

The target in series [5] is T4, Prostaglandin E2 receptor EP1 subtype (Homo sapiens) (UniProt P34995).
T4 sequence (whole entry): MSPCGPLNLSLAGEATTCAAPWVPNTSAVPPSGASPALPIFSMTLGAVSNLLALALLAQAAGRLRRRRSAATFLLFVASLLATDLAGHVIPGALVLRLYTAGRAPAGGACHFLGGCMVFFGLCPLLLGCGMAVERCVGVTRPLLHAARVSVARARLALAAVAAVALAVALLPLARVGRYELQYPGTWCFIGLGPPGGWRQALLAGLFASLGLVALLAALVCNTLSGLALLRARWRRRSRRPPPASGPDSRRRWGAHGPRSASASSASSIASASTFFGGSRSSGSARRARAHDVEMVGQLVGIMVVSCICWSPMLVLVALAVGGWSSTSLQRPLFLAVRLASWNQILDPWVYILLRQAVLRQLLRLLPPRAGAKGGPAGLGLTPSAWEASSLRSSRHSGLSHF
Kind of series: Activity at EP1 receptor at 0.1 uM by FLIPR assay.

Series [6] addresses T5, Prostaglandin E2 receptor EP3 subtype (Homo sapiens, UniProt P43115).
T5 sequence (P43115 whole entry): T3 sequence (whole entry)
As to the kind of experiment: Displacement of [3H]PGE2 from human EP3 receptor.

In series [7] the target is T4, Prostaglandin E2 receptor EP1 subtype (Homo sapiens). As to the kind of experiment: Activity at EP1 receptor at 1 uM by FLIPR assay.
The target of series [8] is T2, Thromboxane A2 receptor (Homo sapiens). Kind of series: Activity at TP receptor at 10 uM by FLIPR assay.
For series [9] the target is unchanged. As to the kind of experiment: Activity at TP receptor at 0.1 uM by FLIPR assay.
Series [10] deals with T6, Prostaglandin F2-alpha receptor (Homo sapiens, UniProt P43088). Kind of series: Activity at FP receptor at 1 uM by FLIPR assay.
T6 sequence (P43088 whole entry): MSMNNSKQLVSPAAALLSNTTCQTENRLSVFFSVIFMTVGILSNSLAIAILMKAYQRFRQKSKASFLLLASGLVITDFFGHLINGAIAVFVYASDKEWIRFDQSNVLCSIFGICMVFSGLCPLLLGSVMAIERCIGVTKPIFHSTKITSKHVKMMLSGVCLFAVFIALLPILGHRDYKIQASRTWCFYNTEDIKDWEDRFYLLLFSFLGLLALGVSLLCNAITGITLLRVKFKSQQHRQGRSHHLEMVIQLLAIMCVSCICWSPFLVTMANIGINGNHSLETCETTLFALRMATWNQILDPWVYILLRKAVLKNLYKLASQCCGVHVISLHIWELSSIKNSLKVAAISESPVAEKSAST
Series [11] concerns the target T1, Prostaglandin E2 receptor EP4 subtype. Kind of series: Activity at EP4 receptor at 0.1 uM by FLIPR assay.
Series [12] addresses T6, Prostaglandin F2-alpha receptor. As to the kind of experiment: Activity at FP receptor at 0.1 uM by FLIPR assay.
Series [13] shares this target. Kind of series: Activity at FP receptor at 10 uM by FLIPR assay.
Series [14] has as its target T4, Prostaglandin E2 receptor EP1 subtype (Homo sapiens). As to the kind of experiment: Activity at EP1 receptor at 10 uM by FLIPR assay.
For series [15], the system named is Platelet. Kind of series: Inhibition of PGE2/collagen-induced platelet aggregation rat platelets rich plasma. The class given is functional.
Series [16] is described as follows: Metabolic stability in rat liver microsomes assessed as compound remaining after 30 mins. In kind it is ADME, Microsome. As to conditions: read-out: Stability.

T1 sequence (P35408 whole entry): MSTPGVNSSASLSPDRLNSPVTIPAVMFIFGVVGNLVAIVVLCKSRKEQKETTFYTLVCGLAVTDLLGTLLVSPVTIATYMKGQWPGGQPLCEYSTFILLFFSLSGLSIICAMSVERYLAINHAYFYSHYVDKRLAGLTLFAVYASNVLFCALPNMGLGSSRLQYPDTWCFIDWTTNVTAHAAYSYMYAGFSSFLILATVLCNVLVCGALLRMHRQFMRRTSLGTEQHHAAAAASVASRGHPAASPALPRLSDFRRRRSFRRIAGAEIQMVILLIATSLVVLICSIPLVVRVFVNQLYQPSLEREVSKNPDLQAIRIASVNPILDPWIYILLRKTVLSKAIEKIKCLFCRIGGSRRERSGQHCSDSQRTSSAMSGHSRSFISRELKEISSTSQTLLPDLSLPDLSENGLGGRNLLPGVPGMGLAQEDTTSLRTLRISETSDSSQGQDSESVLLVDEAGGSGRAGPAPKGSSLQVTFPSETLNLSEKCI

With `Cc1cn(Cc2ccc(F)c(F)c2)c2c(-c3cc(NS(=O)(=O)c4ccc(F)c(F)c4)no3)cc(F)cc12`, the Activity in series [1] is 17%; in series [2], 0%; in [3] it was 18%; in series [5], -9%; in [7], 11%; in series [8] it was 17%. Moreover, the Activity in [9] was 3%; in series [10] it was 16%; in series [11], 18%; in [12], 15%; in [13], 21%; in [14], 99%. The fold change (FC) in series [4] was determined as 178. The compound also gave an IC50 in [6] of 44 nM.
Regarding `Cc1cn(Cc2ccc3ccccc3c2)c2c(-c3cc(NS(=O)(=O)c4cc(Cl)c(Cl)s4)no3)cc(F)cc12`, the Activity is -9% in [1]; -7% in series [2]; 10% in series [3]; -10% in series [5]; 0% in [7]; 7% in [8]. In addition, the Activity was -12% in [9]; -4% in [10]; -9% in series [11]; -7% in series [12]; 7% in series [13]; 80% in series [14]. In addition, in series [4], the fold change (FC) is 3.6. The IC50 in series [6] came out at 1 nM; in series [15], 3240 nM.
On to `Cc1cn(Cc2ccc(F)c(F)c2)c2c(-c3cc(NS(=O)(=O)c4cc(Cl)c(Cl)s4)no3)cc(F)cc12`, for which the Activity in [1] was 11%; in series [2], -3%; in [3] it was 18%; in [5], -8%; in [7] it was -5%; in series [8] it was 11%. Further, the Activity in [9] was 3%; in series [10] it was 18%; in series [11] it was 9%; in [12], 8%; in series [13], 31%; in series [14], 52%. In addition, the fold change (FC) in series [4] was 24.2. This compound came in with an IC50 in series [6] of 59 nM.
As for `Cc1cn(Cc2ccc(Cl)cc2Cl)c2c(-c3nnc(NC(=O)c4ccc(F)c(F)c4)o3)cc(F)cc12`, the Activity in series [1] is 14%; in series [2] it was -1%; in [3], 62%; in series [5], -7%; in series [7], 10%; in series [8] it was 64%. In addition, the Activity was determined as 11% in [9]; 15% in series [10]; 9% in [11]; 3% in series [12]; 66% in series [13]; 96% in series [14]. For the same compound, the fold change (FC) in [4] was determined as 19.6. In series [6], the half-inhibitory concentration (IC50) was determined as 664 nM.
With `Cc1cn(Cc2ccc(Cl)cc2Cl)c2c(-c3nnc(NS(C)(=O)=O)o3)cc(F)cc12`, the fold change (FC) in series [4] was 199. Moreover, the IC50 in series [6] is 2570 nM.
On to `Cc1cn(Cc2ccc(Cl)cc2Cl)c2c(-c3cc(NS(=O)(=O)c4ccc(Cl)c(Cl)c4)no3)cc(F)cc12`, for which the fold change (FC) in series [4] is 18. This compound registered a half-inhibitory concentration (IC50) in series [6] of 1 nM.
With `Cc1cn(Cc2ccc(Cl)cc2Cl)c2c(-c3nnc(NC(=O)c4ccco4)o3)cc(F)cc12`, in series [6], the IC50 was found to be 363 nM.
For the compound `Cc1cn(Cc2ccc(Cl)cc2Cl)c2c(-c3ccc(NS(=O)(=O)c4cc(Cl)c(Cl)s4)nc3)cc(F)cc12`, the fold change (FC) in series [4] is 217. Besides, the IC50 in series [6] stood at 2 nM.
As to `Cc1cn(Cc2ccc3ccccc3c2)c2c(-c3cc(NS(=O)(=O)c4ccc(Cl)c(Cl)c4)no3)cc(F)cc12`, the Activity was -15% in series [1]; -8% in [2]; 3% in series [3]; 2% in [5]; -7% in series [7]; -13% in [8]. Besides, the Activity in [9] was 9%; in [10] it was -8%; in series [11] it was -29%; in series [12], -3%; in [13], -6%; in [14] it was 16%. Moreover, the fold change (FC) in [4] was 4.9. This compound also returned an IC50 in series [6] of 11 nM.
`Cc1cn(Cc2ccc(Cl)cc2Cl)c2c(-c3nnc(NC(=O)c4ccc5c(c4)OC(F)(F)O5)o3)cc(F)cc12`: the fold change (FC) in [4] was found to be 21.4. In series [6], this compound displayed a concentration for half-maximal inhibition (IC50) of 244 nM.
In series [6], `Cc1cn(Cc2ccc(Cl)cc2Cl)c2c(-c3nnc(NC(=O)c4ccc(F)cc4F)o3)cc(F)cc12` registered an IC50 of 1020 nM.
As for `Cc1cn(Cc2ccc(Cl)cc2Cl)c2c(-c3nc(NS(=O)(=O)c4cc(Cl)c(Cl)s4)no3)cc(F)cc12`, the Activity in [1] is -21%; in [2] it was 5%; in [3], 25%; in series [5], 5%; in [7] it was 74%; in series [8], 98%. For the same compound, the Activity in series [9] is 2%; in series [10], -2%; in series [11], -21%; in series [12] it was -4%; in [13], 30%; in [14], 100%. Besides, the fold change (FC) in series [4] worked out at 20.9. In [6], this compound had an IC50 of 24 nM.
Compound `Cc1cn(Cc2ccc(F)cc2F)c2c(-c3cc(NS(C)(=O)=O)on3)cc(F)cc12` gave a 50% inhibitory concentration (IC50) in series [6] of 17900 nM.
Take `Cc1cn(Cc2ccc(F)c(F)c2)c2c(-c3cc(NS(=O)(=O)c4cc(Cl)c(Cl)s4)nn3C)cc(F)cc12`: the fold change (FC) in series [4] worked out at 1. For the same compound, the IC50 in series [6] was determined as 1980 nM.
Consider `Cc1cn(Cc2ccc(F)c(F)c2)c2c(-c3cc(NS(=O)(=O)c4ccc(F)c(F)c4F)no3)cc(F)cc12`, for which the Activity was -3% in [1]; 3% in series [2]; 38% in series [3]; 5% in series [5]; 77% in series [7]; 70% in series [8]. For the same compound, the Activity in [9] was 5%; in series [10] it was -11%; in series [11] it was -8%; in series [12], 3%; in series [13], 99%; in [14], 99%. The fold change (FC) in [4] was 103. The IC50 in series [6] came to 12 nM.
For the compound `Cc1cn(Cc2ccc3ccccc3c2)c2c(-c3cc(NS(=O)(=O)c4ccc(F)c(F)c4)no3)cc(F)cc12`, the Activity is -17% in series [1]; -2% in series [2]; -4% in series [3]; -3% in series [5]; 9% in series [7]; 12% in [8]. Also, the Activity in series [9] was 3%; in [10] it was 0%; in [11] it was -25%; in series [12], -9%; in [13] it was 6%; in [14] it was 62%. Also, the fold change (FC) in [4] is 14.6. Also, in series [6], the IC50 came out at 1 nM. Besides, the remaining at 0.5 h in series [16] amounted to 9.9%.
On to `Cc1cn(Cc2ccc(Cl)cc2Cl)c2c(-c3cc(NS(=O)(=O)c4cc(F)c(F)cc4F)no3)cc(F)cc12`, for which the fold change (FC) in [4] is 3.3. Further, in series [6], the IC50 stood at 3 nM.
For the compound `Cc1cn(Cc2ccc3ccccc3c2)c2c(-c3cc(NS(=O)(=O)c4cc(F)c(F)cc4F)no3)cc(F)cc12`, the Activity in series [1] is -17%; in series [2] it was -5%; in series [3], 9%; in [5], -2%; in series [7], 29%; in series [8], 19%. Further, the Activity is -9% in series [9]; 3% in [10]; -17% in series [11]; -3% in series [12]; 19% in series [13]; 100% in series [14]. In series [4], the fold change (FC) is 2.3. The IC50 in series [6] was determined as 8 nM.

By IC50 is commonly meant the concentration needed to halve the response being measured. Low readings indicate inhibition by little substance, high ones a need for much substance.
